# According to patent US10562891B2, “Quinazolinones as PARP14 inhibitors” (Ribon Therapeutics Inc., priority 2017, dated 2020):
# Counter-ions that a name gives are not always drawn.
# Target: catalytic domain of human PARP14 (Homo sapiens (Human), UniProt Q460N5)
# Test: Enzymatic assay for inhibition of PARP14 (DELFIA, auto-modification with biotin-NAD)
# Format: biochemical
# Conditions: auto-modification of PARP14 by biotin-NAD, 50 nM PARP14, 3 μM biotin-NAD
# Method in brief: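 His-TEV-tagged PARP14 catalytic domain (50 nM) preincubated with compound 30 min at 25 °C, then auto-modified with 3 μM biotin-NAD for 3 h at 25 °C in HEPES pH 8 buffer with DTT. IC50 from 4-parameter fit, rucaparib and DMSO as controls.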
# catalytic domain of human PARP14, sequence (Q460N5 1611-1801): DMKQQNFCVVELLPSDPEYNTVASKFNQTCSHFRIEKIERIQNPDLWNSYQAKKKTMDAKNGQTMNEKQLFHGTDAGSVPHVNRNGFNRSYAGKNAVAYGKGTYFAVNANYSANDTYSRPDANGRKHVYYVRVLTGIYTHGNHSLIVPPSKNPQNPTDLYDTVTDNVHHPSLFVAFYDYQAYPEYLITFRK
row,Structure (SMILES),IC50 [nM]
1,"Cc1cccc2c(=O)[nH]c(CS[C@H]3CCC[C@@H](CO)C3)nc12 (relative stereo) [Example 71, 2-(((cis-3-(Hydroxymethyl)cyclohexyl)thio)methyl)-8-methylquinazolin-4(3H)-one]",1000 to 10000
2,"CS(=O)(=O)N1CCC[C@@H](Nc2ccc3c(=O)[nH]c(CSC4CCNCC4)nc3c2)C1 [Example 196, (R)-7-((1-(methylsulfonyl)piperidin-3-yl)amino)-2-((piperidin-4-ylthio)methyl)quinazolin-4(3H)-one]",< 1000
3,"CS(=O)(=O)N1CCC[C@@H](Nc2ccc3c(=O)[nH]c(CSC4CCOCC4)nc3n2)C1 [Example 201, (R)-7-((1-(methylsulfonyl)piperidin-3-yl)amino)-2-(((tetrahydro-2H-pyran-4-yl)thio)methyl)pyrido[2,3-d]pyrimidin-4(3H)-one]",< 1000
4,"COc1cc(NC2CCCC2)cc2nc(CSC3CCOCC3)[nH]c(=O)c12 [Example 207, 7-(Cyclopentylamino)-5-methoxy-2-(((tetrahydro-2H-pyran-4-yl)thio)methyl)quinazolin-4(3H)-one]",> 10000
5,"O=c1[nH]c(CSC2CCOCC2)nc2cc(NC3CCCC3)cc(Cl)c12 [Example 253, 5-Chloro-7-(cyclopentylamino)-2-(((tetrahydro-2H-pyran-4-yl)thio)methyl)quinazolin-4(3H)-one]",< 1000
6,"Cc1cccc2c(=O)[nH]c(CS[C@H]3C[C@H](O)C3)nc12 [Example 47, 2-(((trans-3-Hydroxycyclobutyl)thio)methyl)-8-methylquinazolin-4(3H)-one]",1000 to 10000
7,"O=c1[nH]c(CSC2CCOCC2)nc2cc(Nc3nccs3)ccc12 [Example 89, 2-(((Tetrahydro-2H-pyran-4-yl)thio)methyl)-7-(thiazol-2-ylamino)quinazolin-4(3H)-one]",1000 to 10000
8,"CC(=O)N1CCC(Nc2ccc3c(=O)[nH]c(CSC4CCOCC4)nc3c2)CC1 [Example 131, 7-((1-Acetylpiperidin-4-yl)amino)-2-(((tetrahydro-2H-pyran-4-yl)thio)methyl) quinazolin-4(3H)-one]",1000 to 10000
9,"COc1ccccc1Nc1ccc2c(=O)[nH]c(CSC3CCOCC3)nc2c1 [Example 84, 7-((2-Methoxyphenyl)amino)-2-(((tetrahydro-2H-pyran-4-yl)thio)methyl)quinazolin-4(3H)-one]",1000 to 10000
10,"Cc1cccc2c(=O)[nH]c(CS[C@H]3CC[C@H](CC(N)=O)CC3)nc12 [Example 209, 2-((trans)-4-(((8-Methyl-4-oxo-3,4-dihydroquinazolin-2-yl)methyl)thio)cyclohexyl) acetamide]",< 1000
11,"O=c1[nH]c(CSC2CCNCC2)nc2cc(NCC3CC3)cc(F)c12 [Example 265, 7-((Cyclopropylmethyl)amino)-5-fluoro-2-((piperidin-4-ylthio)methyl)quinazolin-4(3H)-one]",< 1000
12,"Cc1cccc2c(=O)[nH]c(CS[C@H]3CC[C@@H](CN(C)C)CC3)nc12 [Example 68, 2-(((cis-4-((Dimethylamino)methyl)cyclohexyl)thio)methyl)-8-methyl quinazolin-4(3H)-one Trifluoroacetate]",1000 to 10000
13,"Cn1ccnc1Nc1ccc2c(=O)[nH]c(CSC3CCOCC3)nc2c1 [Example 88, 7-((1-Methyl-1H-imidazol-2-yl)amino)-2-(((tetrahydro-2H-pyran-4-yl)thio)methyl)quinazolin-4(3H)-one]",> 10000
14,"Cc1cccc(CN2CCC(SCc3nc4c(C)cccc4c(=O)[nH]3)CC2)n1 [Example 145, 8-Methyl-2-(((1-((6-methylpyridin-2-yl)methyl)piperidin-4-yl)thio)methyl)quinazolin-4(3H)-one bistrifluoroacetate]",< 1000
15,"O=c1[nH]c(CSC2CCOCC2)nc2cc(NC3CCCCC3)c(F)cc12 [Example 290, 7-(Cyclohexylamino)-6-fluoro-2-(((tetrahydro-2H-pyran-4-yl)thio)methyl)quinazolin-4(3H)-one]",< 1000
16,"Cc1cccc2c(=O)[nH]c(CS[C@H]3CCC[C@@H](N)CC3)nc12 (relative stereo) [Example 55, 2-(((cis-4-Aminocycloheptyl)thio)methyl)-8-methylquinazolin-4(3H)-one Trifluoroacetate]",1000 to 10000
17,"Cc1cccc2c(=O)[nH]c(CS[C@H]3CC[C@H](CN(C)C)CC3)nc12 [Example 69, 2-(((trans-4-((Dimethylamino)methyl)cyclohexyl)thio)methyl)-8-methyl quinazolin-4(3H)-one Trifluoroacetate]",< 1000
18,"Cc1n[nH]cc1CN1CCC(SCc2nc3c(C)cccc3c(=O)[nH]2)CC1 [Example 149, 8-Methyl-2-(((1-((3-methyl-1H-pyrazol-4-yl)methyl)piperidin-4-yl)thio)methyl)quinazolin-4(3H)-one trifluoroacetate]",1000 to 10000
19,"Cc1ncccc1Nc1ccc2c(=O)[nH]c(CSC3CCOCC3)nc2c1 [Example 90, 7-((2-Methylpyridin-3-yl)amino)-2-(((tetrahydro-2H-pyran-4-yl)thio)methyl)quinazolin-4(3H)-one]",1000 to 10000
20,"O=c1[nH]c(CSC2CCOCC2)nc2cccnc12 [Example 36, 2-(((Tetrahydro-2H-pyran-4-yl)thio)methyl)pyrido[3,2-d]pyrimidin-4(3H)-one]",> 10000
21,"Cc1cccc2c(=O)[nH]c(CSC3CCN(C(=O)CCc4ccccn4)CC3)nc12 [Example 173, 8-Methyl-2-(((1-(3-(pyridin-2-yl)propanoyl)piperidin-4-yl)thio)methyl) quinazolin-4(3H)-one]",1000 to 10000
22,"Cc1cccc2c(=O)[nH]c(CS[C@H]3C[C@H](N)C3)nc12 [Example 52, 2-(((trans-3-Aminocyclobutyl)thio)methyl)-8-methylquinazolin-4(3H)-one Hydrochloride]",1000 to 10000
23,"O=c1[nH]c(CSC2CCOCC2)nc2cc(NC3CCCC3)c(F)c(F)c12 [Example 294, 7-(Cyclopentylamino)-5,6-difluoro-2-(((tetrahydro-2H-pyran-4-yl)thio)methyl)quinazolin-4(3H)-one]",< 1000
24,"Cc1ccc(C(F)(F)F)c2c(=O)[nH]c(CSC3CCOCC3)nc12 [Example 35, 8-Methyl-2-(((tetrahydro-2H-pyran-4-yl)thio)methyl)-5-(trifluoromethyl)quinazolin-4(3H)-one]",< 1000
25,"O=c1[nH]c(CSC2CCOCC2)nc2cc(Nc3cccnc3)ccc12 [Example 80, 7-(Pyridin-3-ylamino)-2-(((tetrahydro-2H-pyran-4-yl)thio)methyl)quinazolin-4(3H)-one]",< 1000
26,"COc1ccc2c(=O)[nH]c(CSC3CCOCC3)nc2c1 [Example 31, 7-Methoxy-2-(((tetrahydro-2H-pyran-4-yl)thio)methyl)quinazolin-4(3H)-one]",1000 to 10000

# Now from value to compound:
row,IC50 [nM],Structure (SMILES)
1,< 1000,CC(C)C(=O)N1CCC(COc2cc(F)c3c(=O)[nH]c(CSC4CCOCC4)nc3c2)CC1 [Example 397]
2,< 1000,N#Cc1cc(OCC2CCOC2)cc2nc(CSC3CCOCC3)[nH]c(=O)c12 (stereo not drawn) [Example 383]
3,< 1000,CC(=O)N[C@H]1C[C@H](SCc2nc3cc(OCC4CCOCC4)cc(F)c3c(=O)[nH]2)C1 [Example 393]
4,< 1000,O=C(C1CC1)N1CCC(COc2cc(F)c3c(=O)[nH]c(CSC4CCOCC4)nc3c2)CC1 [Example 390]
5,< 1000,"CN1CC[C@H](COc2cc(F)c3c(=O)[nH]c(CSC4CCOCC4)nc3c2)[C@@H](F)C1 (relative stereo) [Example 326, 5-Fluoro-7-(((trans)-3-fluoro-1-methylpiperidin-4-yl)methoxy)-2-(((tetrahydro-2H-pyran-4-yl)thio)methyl)quinazolin-4(3H)-one]"
6,< 1000,CC1(SCc2nc3cc(OCC4CCOCC4)cc(F)c3c(=O)[nH]2)CCOCC1 [Example 358]
7,< 1000,O=c1[nH]c(CSC2CCOCC2)nc2cc(OCC3COC3)cc(F)c12 [Example 343]
8,< 1000,O=c1[nH]c(CSC2CCOCC2)nc2cc(OCC3CCS(=O)(=O)CC3)cc(F)c12 [Example 351]
9,< 1000,CC(=O)N1CCC(CNc2cc3nc(CS[C@H]4CC[C@H](O)CC4)[nH]c(=O)c3c(F)c2F)CC1 [Example 419]
10,< 1000,CO[C@H]1CC[C@@H](Nc2cc3nc(CS[C@H]4CC[C@H](O)CC4)[nH]c(=O)c3c(F)c2F)CC1 [Example 379]
11,< 1000,CN1C[C@H](COc2cc(F)c3c(=O)[nH]c(CSC4CCOCC4)nc3c2)[C@H](F)C1 (relative stereo) [Example 372]
12,< 1000,O=c1[nH]c(CS[C@H]2C[C@H](O)C2)nc2cc(OCC3CCOCC3)cc(F)c12 [Example 382]
13,< 1000,N#C[C@H]1CC[C@@H](Nc2cc3nc(CSC4CCOCC4)[nH]c(=O)c3c(F)c2F)CC1 [Example 361]
14,< 1000,C[C@]1(O)CC[C@H](SCc2nc3cc(OCC4CCOC4)cc(F)c3c(=O)[nH]2)CC1 (stereo partly drawn) [Example 373]
15,< 1000,"CO[C@H]1C[C@@H](Nc2cc3nc(CSC4CCOCC4)[nH]c(=O)c3c(F)c2F)C1 [Example 328, 5,6-Difluoro-7-(((cis)-3-methoxycyclobutyl)amino)-2-(((tetrahydro-2H-pyran-4-yl)thio)methyl)quinazolin-4(3H)-one]"
16,< 1000,"O=c1[nH]c(CS[C@H]2CC[C@H](O)CC2)nc2cc(NC3CCCC3)c(F)c(F)c12 [Example 313, 7-(Cyclopentylamino)-5,6-difluoro-2-(((trans-4-hydroxycyclohexyl)thio)methyl)quinazolin-4(3H)-one]"
17,< 1000,COC(=O)N1CCC(COc2cc(F)c3c(=O)[nH]c(CSC4CCOCC4)nc3c2)CC1 [Example 410]
18,< 1000,CO[C@H]1CC[C@@H](SCc2nc3cc(OCC4CCOCC4)cc(F)c3c(=O)[nH]2)CC1 [Example 357]
19,< 1000,"O=c1[nH]c(CSC2CCOCC2)nc2cc(OCC3CCCN(CC(F)F)C3)cc(F)c12 (stereo not drawn) [Example 312, 7-((1-(2,2-Difluoroethyl)piperidin-3-yl)methoxy)-5-fluoro-2-(((tetrahydro-2H-pyran-4-yl)thio)methyl)quinazolin-4(3H)-one]"
